Results on two molecules are retold here after patent US20240294467A1, “USP9X Inhibitors” (ProDeg, LLC, priority 2021, published 2024).

One may read the inhibition as the drop in the measured response relative to a control, in per cent. Low values mean little suppression, high ones strong suppression.

Molecules are shown by their SMILES.

One test deals with VCPIP (Homo sapiens (Human), UniProt Q96JH7). The experiment in a line: DUB selectivity panel using ubiquitin-AMC. The test is classed as biochemical. Particulars: 5 μM compound, 500 nM Ubiquitin-AMC. The source says:
Compounds were screened for DUB inhibitory and apoptotic activity against other deubiquitylases in a DUB selectivity panel using ubiquitin-AMC (BPS Bioscience Inc.).

A further test relates to Mcl-1. The experiment in a line: Capture ELISA of Mcl-1 and ubiquitylated Mcl-1 in MIA-PaCa-2 cells. The test is classed as cell-based, human. The settings on record: 24 hours. As to the method: MIA-PaCa-2 cells were treated with Compound 7A at 25 μM, 12.5 μM, 6.25 μM, and 3.125 μM, respectively, for 24 hours. Capture ELISA of Mcl-1 was performed using a dilution series of MIA-PaCa-2 cell lysates equalized for total protein in a 96-well plate coated with sheep anti-human Mcl-1 (R&D Systems, #AF8281). Detection of Mcl-1 was performed using biotinylated sheep anti-human Mcl-1 followed by streptavidin-horseradish peroxidase and TMB development. For detection of ubiquitylated Mcl-1 the same capture conditions were used but employing a biotinylated mouse anti-human ubiquitin antibody (R&D Systems, #MAB701), again detecting with streptavidin-horseradish peroxidase and TMB development. Lysate samples were run in triplicate and percentages were calculated based on the signal generated from cell lysates with no compound added (vehicle control samples). […] With 12.5 μM Compound 7A, Mcl-1 declined by about 25.0% whereas ubiquitylated Mcl-1 increased by about 14.0%.

In test [1] the test system is SK-BR3 breast cancer cells. The experiment in a line: WST-1 cell viability assay. The test is classed as cell-based. The settings on record: Homo sapiens, SK-BR-3, 72-hour treatment, read-out: IC50, inhibiting proliferation. As for the experimental part: Compound Compound 9A was tested for the ability to inhibit the proliferation of Mia-Paca-2 pancreatic cancer cells. Mia-Paca-2 and MDA-MB-231 cells were seeded into the wells of a 96 well tissue culture plate in complete medium (10% fetal calf serum) and incubated overnight at 37° C./5% CO2). The medium was exchanged for fresh medium containing varying concentrations of Compound 9A and the plate was incubated for 72 hours at 37° C./5% CO2. The viability of cells at the end of this incubation was assessed with the WST-1 reagent. To 10 ml of warm (37° C.) complete medium, 1 ml WST-1 reagent was added. The medium from the wells of the plate with the Mia-Paca-2 cells was removed and replaced with 100 μL of the WST-1 reagent in complete medium. The plate was incubated at 37 37° C./5% CO2. At timed intervals the absorbance at 450 nm was determined for each well in a UVNis plate reader. For each well the slope of the plot of the absorbance 450 nm vs time was determined. The readings were normalized to that of the wells for the untreated control and a dose-response curve was plotted. A fit to the data was made from a four parameter, variable slope program (GraphPad Prism) and the IC50 was determined.
Another substrate of USP9X is the receptor tyrosine kinase erbB2. […] The breast cancer cell line SK-BR3 expresses high levels of erbB2. […]
(Formazan colour is commonly taken as a measure of viable cells.)

In the next test the test system is HCT-116. The test is described as follows: ONCOLINES Profiler proliferation. The test is classed as cell-based. Particulars: Homo sapiens; HCT-116, colon carcinoma. The source says:
(§1) The compounds were profiled on an ONCOLINES™ Profiler (Netherlands Translational Research Center) assayed with 66 cancer cell lines to determine if they were capable of inhibiting the proliferation of these cancer cells.

For the next test, the system named is VA-ES-BJ. The experiment in a line: ONCOLINES Profiler proliferation. The test is classed as cell-based. Particulars: epithelioid carcinoma, bone.
Excerpt: as §1

The subject of another test is DoTc2 4510. The test is described as follows: ONCOLINES Profiler proliferation. The test is classed as cell-based. Particulars: Homo sapiens; DoTc2 4510, cervix carcinoma.
Excerpt: as §1

The subject of test [2] is malignant melanoma cell line MWo. The test is described as follows: ONCOLINES Profiler proliferation. The test is classed as cell-based.
Excerpt: as §1

The test system of another test is Daoy. The test is described as follows: ONCOLINES Profiler proliferation. The test is classed as cell-based. Particulars: Homo sapiens, medulloblastoma.
Excerpt: as §1

The test system of another test is MIA PaCa-2. The test is described as follows: ONCOLINES Profiler proliferation. The test is classed as cell-based. The settings on record: Homo sapiens; MIA PaCa-2, pancreatic ductal carcinoma.
Excerpt: as §1

In another test the test system is SR. The test is described as follows: ONCOLINES Profiler proliferation. The test is classed as cell-based. The settings on record: Homo sapiens, large cell immunoblastic lymphoma.
Excerpt: as §1

The next test concerns AN3 CA. The test is described as follows: ONCOLINES Profiler proliferation. The test is classed as cell-based. The settings on record: Homo sapiens, endometrium adenocarcinoma.
Excerpt: as §1

The subject of the next test is SK-N-AS. The experiment in a line: ONCOLINES Profiler proliferation. The test is classed as cell-based. Particulars: Homo sapiens, neuroblastoma.
Excerpt: as §1

Another test has as its system A-204. The test is described as follows: ONCOLINES Profiler proliferation. The test is classed as cell-based. The settings on record: Homo sapiens, A204; A-204, rhabdomyosarcoma.
Excerpt: as §1

In the next test the test system is NCI-H460. The experiment in a line: ONCOLINES Profiler proliferation. The test is classed as cell-based. Particulars: Homo sapiens; NCI-H460, large cell lung carcinoma.
Excerpt: as §1

A further test relates to PA-1. The test is described as follows: ONCOLINES Profiler proliferation. The test is classed as cell-based. The settings on record: Homo sapiens; PA-1, ovary teratocarcinoma.
Excerpt: as §1

A further test has as its system SUP-T1. The experiment in a line: ONCOLINES Profiler proliferation. The test is classed as cell-based. Particulars: Homo sapiens; SUP-T1, T-cell lymphoblastic lymphoma.
Excerpt: as §1

A further test relates to A375. The experiment in a line: ONCOLINES Profiler proliferation. The test is classed as cell-based. The settings on record: Homo sapiens, A-375; A375, malignant melanoma.
Excerpt: as §1

Another test relates to K-562. The experiment in a line: ONCOLINES Profiler proliferation. The test is classed as cell-based. Particulars: Homo sapiens, K562; K-562, CML.
Excerpt: as §1

Another test relates to OVCAR-3. The test is described as follows: ONCOLINES Profiler proliferation. The test is classed as cell-based. The settings on record: Homo sapiens; OVCAR-3, ovary adenocarcinoma.
Excerpt: as §1

The next test deals with A388. The test is described as follows: ONCOLINES Profiler proliferation. The test is classed as cell-based. The settings on record: A388, epidermal carcinoma.
Excerpt: as §1

For another test, the system named is Jurkat E6.1. The experiment in a line: ONCOLINES Profiler proliferation. The test is classed as cell-based. The settings on record: Homo sapiens; Jurkat E6.1, T cell leukemia.
Excerpt: as §1

A further test deals with PD-L1. The test is described as follows: Western blot of PD-L1 in MIA PaCa-2 cells. The test is classed as cell-based. The settings on record: 24 hours. As to the method: MIA PaCa-2 cells expressing detectable levels of PD-L1 are treated with Compound 7A at various concentrations for 24 hours, and the ensuing level of PD-L1 are determined by Western blot to decrease by about 50% after the treatment.
On the technique in general: In western blotting, separated proteins are transferred to a membrane and probed.

The next test concerns erbB2. The test is described as follows: Western blot of erbB2 in SK-BR3 cells. The test is classed as cell-based, human. The settings on record: 72-hour treatment, 10 μm. As to the method:
Another substrate of USP9X is the receptor tyrosine kinase erbB2. […] The breast cancer cell line SK-BR3 expresses high levels of erbB2. This cell line was treated with Compound 7A and the effects on cell viability as well as expression levels of erbB2 were examined.
Compound 7A inhibited the viability of SK-BR3. The levels of erbB2 were determined by Western blot and found to decrease in parallel with the decline in cell viability. After 72-hour treatment of 10 μm Compound 7A, the level of erbB2 declined to about zero. The loss of erbB2 from the plasma membrane was also confirmed by flow cytometry.

Chain of VCPIP (Q96JH7 whole entry): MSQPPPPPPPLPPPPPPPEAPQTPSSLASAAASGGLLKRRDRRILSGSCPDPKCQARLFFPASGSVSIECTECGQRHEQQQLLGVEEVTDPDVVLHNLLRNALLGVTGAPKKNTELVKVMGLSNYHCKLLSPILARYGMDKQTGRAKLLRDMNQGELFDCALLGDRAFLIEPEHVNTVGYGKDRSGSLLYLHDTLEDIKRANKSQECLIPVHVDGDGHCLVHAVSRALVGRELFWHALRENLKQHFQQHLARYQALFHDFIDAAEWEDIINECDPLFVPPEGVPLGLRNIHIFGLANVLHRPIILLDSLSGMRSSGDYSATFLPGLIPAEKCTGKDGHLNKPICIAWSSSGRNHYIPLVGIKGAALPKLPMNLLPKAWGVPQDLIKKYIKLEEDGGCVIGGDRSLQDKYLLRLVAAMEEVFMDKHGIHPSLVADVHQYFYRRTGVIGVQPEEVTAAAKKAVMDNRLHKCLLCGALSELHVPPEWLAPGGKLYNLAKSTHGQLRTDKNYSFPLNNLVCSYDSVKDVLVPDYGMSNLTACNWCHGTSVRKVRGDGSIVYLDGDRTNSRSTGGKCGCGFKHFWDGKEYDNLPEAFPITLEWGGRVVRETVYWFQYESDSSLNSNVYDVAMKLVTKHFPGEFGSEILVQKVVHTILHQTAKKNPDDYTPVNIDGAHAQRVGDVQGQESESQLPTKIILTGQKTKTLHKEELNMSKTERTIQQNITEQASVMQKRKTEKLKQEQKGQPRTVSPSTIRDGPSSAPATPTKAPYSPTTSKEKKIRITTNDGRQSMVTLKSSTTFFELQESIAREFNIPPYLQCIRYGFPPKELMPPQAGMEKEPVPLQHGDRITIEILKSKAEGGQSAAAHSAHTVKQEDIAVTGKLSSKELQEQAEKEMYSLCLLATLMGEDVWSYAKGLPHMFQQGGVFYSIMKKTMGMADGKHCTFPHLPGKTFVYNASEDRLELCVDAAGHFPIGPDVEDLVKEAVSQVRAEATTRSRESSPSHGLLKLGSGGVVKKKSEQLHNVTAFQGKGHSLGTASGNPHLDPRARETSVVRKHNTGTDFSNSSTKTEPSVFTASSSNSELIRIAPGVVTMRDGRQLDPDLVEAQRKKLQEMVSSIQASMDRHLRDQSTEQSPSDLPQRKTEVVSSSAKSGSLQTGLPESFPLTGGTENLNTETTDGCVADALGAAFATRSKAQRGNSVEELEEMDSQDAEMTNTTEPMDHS

`CN1CCOc2ccc(cc2)C(=O)NCc2cccc(c2)C(=O)N[C@@H](CC(C)(C)C)C(=O)Nc2ccc(cc2)CCN(C)C(=O)CC(C)(C)CC1=O` [Compound 5A]: on VCPIP, the inhibition at 5 µM is under 3%.

For `CN1CCOc2ccc(cc2)C(=O)NCc2ccc(F)c(c2)C(=O)N[C@@H](CC(C)(C)C)C(=O)Nc2ccc(cc2)CCN(C)C(=O)CC(C)(C)CC1=O` [Compound 7A], the Mcl-1 decline entry in the test on Mcl-1 (12.5 μM) was “about 25.0%”; in the test with Mcl-1 (25 μM) it was “about 23.0%”. Besides, the “ubiquitylated Mcl-1 increase” value with Mcl-1 (12.5 μM) was “about 14.0%”; in the test on Mcl-1 (25 μM) it was “about 27.5%”. Moreover, the IC50 in test [1] was 2.7 µM; in the test with HCT-116, 2.39 µM; in the test with VA-ES-BJ, 0.682 µM; with DoTc2 4510, 0.963 µM; in test [2], over 32 µM; in the test with Daoy, 3.38 µM. Besides, the IC50 in the test on MIA PaCa-2 is 0.79 µM; with SR it was 1.58 µM; with AN3 CA, 0.66 µM; with SK-N-AS, 1.72 µM; with A-204, 1.36 µM; with NCI-H460, 2.09 µM. Besides, the IC50 in the test on PA-1 is 2.07 µM; in the test on SUP-T1, 4.29 µM; in the test with A375, 2.02 µM; with K-562, 0.486 µM; in the test on OVCAR-3, 2.4 µM; in the test with A388, 2.39 µM. For the same molecule, the IC50 in the test on Jurkat E6.1 is 0.548 µM. Moreover, the “decrease of level of PD-L1” value with PD-L1 is “about 50%”. Also, in the test with erbB2, the “level of erbB2 declined to” value is given as “about zero”.
